Source: patent publication US11339161B2, “Triazolo pyridines as modulators of gamma-secretase” (Boehringer Ingelheim International GmbH, priority 2017, dated 2022)
Read-outs that look alike come from different tables or passages of the source.

Experiments:
RPS6KB1 (p70S6K) = RPS6KB1 (p70S6K) (Homo sapiens, UniProt P23443); experiment: Z'-LYTE SelectScreen biochemical kinase assay RPS6KB1 (p70S6K)
Description: (§1) Thermo Fisher Scientific SelectScreen™ Biochemical Kinase Profiling Service Z′-LYTE™ Screening Protocol and Assay Conditions Assay Theory
(§2) The […] biochemical assay employs a fluorescence-based, coupled-enzyme format and is based on the differential sensitivity of phosphorylated and non-phosphorylated peptides to proteolytic cleavage. The peptide substrate is labeled with two fluorophores—one at each end—that make up a FRET pair. In the primary reaction, the kinase transfers the gamma-phosphate of ATP to a single tyrosine, serine or threonine residue in a synthetic FRET-peptide. In the secondary reaction, a site-specific protease recognizes and cleaves non-phosphorylated FRET-peptides. Phosphorylation of FRET-peptides suppresses cleavage by the Development Reagent. Cleavage disrupts FRET between the donor (i.e., coumarin) and acceptor (i.e., fluorescein) fluorophores on the FRET-peptide, whereas uncleaved, phosphorylated FRET-peptides maintain FRET. A ratiometric method, which calculates the ratio (Emission Ratio=Coumarin emission (445 nm)/Fluorescein emission (520 nm)) of donor emission to acceptor emission after excitation of the donor fluorophore at 400 nm, is used to quantitate reaction progress, as shown in the equation below. A significant benefit of this ratiometric method for quantitating reaction progress is the elimination of well-to-well variations in FRET-peptide concentration and signal intensities. As a result, the assay yields very high Z′-factor values (>0.7) at a low percent phosphorylation. Both cleaved and uncleaved FRET-peptides contribute to the fluorescence signals and therefore to the Emission Ratio. The extent of phosphorylation of the FRET-peptide can be calculated from the Emission Ratio. The Emission Ratio will remain low if the FRET-peptide is phosphorylated (i.e., no kinase inhibition) and will be high if the FRET-peptide is non-phosphorylated (i.e., kinase inhibition).
(§3) The Test Compounds are screened in 1% DMSO (final) in the well. For 10 point titrations, 3-fold serial dilutions are conducted from the starting concentration of the customer's choosing.
(§4) All Peptide/Kinase Mixtures are diluted to a 2× working concentration in the appropriate Kinase Buffer (see section Kinase Specific Assay Conditions for a complete description).
(§5) All ATP Solutions are diluted to a 4× working concentration in Kinase Buffer (50 mM HEPES pH 7.5, 0.01% BRIJ-35, 10 mM MgCl2, 1 mM EGTA). ATP Km apparent is previously determined using a Z″-LYTE assay.
(§6) The Development Reagent is diluted in Development Buffer (see section Kinase-Specific Assay Conditions—Direct and Cascade for a complete description).
(§7) Bar-coded Corning, low volume NBS, black 384-well plate (Corning Cat. #4514) • 1. 100 nL—100× Test Compound in 100% DMSO • 2. 2.4 μL—Kinase buffer • 3. 5 μL—2× Peptide/Kinase Mixture • 4. 2.5 μL—4×ATP Solution • 5. 30—second plate shake • 6. 60—minute Kinase Reaction incubation at room temperature • 7. 5 μL—Development Reagent Solution • 8. 30—second plate shake • 9. 60—minute Development Reaction incubation at room temperature • 10. Read on fluorescence plate reader and analyze the data Z′-LYTE Assay Controls
(§8) SelectScreen Kinase Profiling Service uses XLfit from IDBS. The dose response curve is curve fit to model number 205 (sigmoidal dose-response model).
(§9) The 2×RPS6 KB1 (p70S6K)/Ser/Thr 07 mixture is prepared in 50 mM HEPES pH 7.5, 0.01% BRIJ-35, 10 mM MgCl2, 1 mM EGTA. The final 10 μL Kinase Reaction consists of 2.87-17.7 ng RPS6 KB1 (p70S6K) and 2 μM Ser/Thr 07 in 50 mM HEPES pH 7.5, 0.01% BRIJ-35, 10 mM MgCl2, 1 mM EGTA. After the 1 hour Kinase Reaction incubation, 5 μL of a 1:45000 dilution of Development Reagent A is added.

FGFR1 = FGFR1 (Homo sapiens, UniProt P11362); experiment: Z'-LYTE SelectScreen biochemical kinase assay FGFR1
Description: as §1, §2, §3, §4, §5, §6, §7, §8
The 2×FGFR1/Tyr 04 mixture is prepared in 50 mM HEPES pH 7.5, 0.01% BRIJ-35, 10 mM MgCl2, 4 mM MnCl2, 1 mM EGTA, 2 mM DTT. The final 10 μL Kinase Reaction consists of 0.44-2.45 ng FGFR1 and 2 μM Tyr 04 in 50 mM HEPES pH 7.5, 0.01% BRIJ-35, 10 mM MgCl2, 2 mM MnCl2, 1 mM EGTA, 1 mM DTT. After the 1 hour Kinase Reaction incubation, 5 μL of a 1:64 dilution of Development Reagent B is added.

CDK5/p35 = CDK5/p35 (Homo sapiens, UniProt Q00535); experiment: Z'-LYTE SelectScreen biochemical kinase assay CDK5/p35
Description: as §1, §2, §3, §4, §5, §6, §7, §8
as §9, with “2×CDK5/p35/Ser/Thr 12” for “2×RPS6 KB1 (p70S6K)/Ser/Thr 07”, “0.14-1.3” for “2.87-17.7”, “CDK5/p35” for “RPS6 KB1 (p70S6K)”, “12” for “07”, “1:4096” for “1:45000”

Chain of RPS6KB1 (p70S6K) (P23443 whole entry): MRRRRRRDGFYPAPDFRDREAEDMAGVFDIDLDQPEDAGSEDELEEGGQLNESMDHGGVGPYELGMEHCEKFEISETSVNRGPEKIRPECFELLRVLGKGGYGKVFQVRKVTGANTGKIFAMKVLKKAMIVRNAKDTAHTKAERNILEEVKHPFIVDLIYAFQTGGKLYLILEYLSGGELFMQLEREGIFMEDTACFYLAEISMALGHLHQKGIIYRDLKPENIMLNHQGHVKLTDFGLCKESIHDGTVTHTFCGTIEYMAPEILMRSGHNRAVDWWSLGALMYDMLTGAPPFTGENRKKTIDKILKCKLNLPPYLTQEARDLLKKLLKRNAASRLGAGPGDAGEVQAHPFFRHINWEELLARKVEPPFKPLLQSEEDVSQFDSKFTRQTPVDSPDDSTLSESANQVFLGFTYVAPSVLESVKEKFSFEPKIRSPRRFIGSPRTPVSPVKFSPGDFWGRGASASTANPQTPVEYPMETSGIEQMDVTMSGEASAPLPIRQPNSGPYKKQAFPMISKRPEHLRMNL
Chain of CDK5/p35 (Q00535 whole entry): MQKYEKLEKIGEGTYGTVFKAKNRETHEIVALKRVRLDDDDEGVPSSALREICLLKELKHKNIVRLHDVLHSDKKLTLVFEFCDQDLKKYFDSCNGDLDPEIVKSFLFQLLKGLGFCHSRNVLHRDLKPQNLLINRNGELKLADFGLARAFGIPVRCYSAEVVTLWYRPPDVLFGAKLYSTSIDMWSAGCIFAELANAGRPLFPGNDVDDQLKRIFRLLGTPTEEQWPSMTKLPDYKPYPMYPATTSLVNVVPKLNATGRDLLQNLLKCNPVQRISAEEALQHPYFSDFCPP
Chain of CDK5/p35 (Q15078 whole entry partner): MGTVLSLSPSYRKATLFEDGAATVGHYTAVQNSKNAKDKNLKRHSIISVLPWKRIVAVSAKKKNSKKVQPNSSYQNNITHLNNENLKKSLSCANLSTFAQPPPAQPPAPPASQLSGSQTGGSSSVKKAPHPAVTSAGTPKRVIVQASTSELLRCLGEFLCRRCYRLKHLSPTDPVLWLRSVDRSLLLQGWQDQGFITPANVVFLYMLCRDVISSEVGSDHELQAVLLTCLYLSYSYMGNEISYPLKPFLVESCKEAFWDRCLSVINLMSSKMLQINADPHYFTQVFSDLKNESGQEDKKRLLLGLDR
Chain of FGFR1 (P11362 22-822): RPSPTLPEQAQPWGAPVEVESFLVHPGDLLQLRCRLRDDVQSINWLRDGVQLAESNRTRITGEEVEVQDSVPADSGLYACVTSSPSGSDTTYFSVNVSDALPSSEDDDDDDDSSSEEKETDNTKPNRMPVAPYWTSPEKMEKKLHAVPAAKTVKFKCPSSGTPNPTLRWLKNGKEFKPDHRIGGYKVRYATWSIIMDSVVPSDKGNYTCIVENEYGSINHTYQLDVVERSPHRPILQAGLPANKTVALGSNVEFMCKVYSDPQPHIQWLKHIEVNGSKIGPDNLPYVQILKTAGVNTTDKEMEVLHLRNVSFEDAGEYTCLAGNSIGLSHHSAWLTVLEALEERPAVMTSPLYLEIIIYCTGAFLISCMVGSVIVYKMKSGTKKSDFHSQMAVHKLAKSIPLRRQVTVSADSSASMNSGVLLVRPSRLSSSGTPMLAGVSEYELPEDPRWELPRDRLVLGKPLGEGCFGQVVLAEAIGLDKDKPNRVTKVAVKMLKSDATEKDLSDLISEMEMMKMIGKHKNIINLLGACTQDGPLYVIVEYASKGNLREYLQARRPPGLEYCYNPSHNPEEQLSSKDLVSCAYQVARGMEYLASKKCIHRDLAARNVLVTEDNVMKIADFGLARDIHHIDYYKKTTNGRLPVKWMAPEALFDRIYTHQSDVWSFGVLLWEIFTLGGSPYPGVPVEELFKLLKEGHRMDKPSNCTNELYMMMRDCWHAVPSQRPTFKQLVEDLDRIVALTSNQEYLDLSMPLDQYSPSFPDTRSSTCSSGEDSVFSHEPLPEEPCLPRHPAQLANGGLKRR

- inhibition at 10 µM (RPS6KB1 (p70S6K); 10 μmolar compound concentration, ATP at Km app, read-out: RPS6KB1 (p70S6K) inhibition): < 40%
- inhibition at 10 µM (RPS6KB1 (p70S6K); read-out: % Inhibition mean RPS6KB1 (p70S6K)): 33%
- inhibition at 10 µM (FGFR1; 10 μmolar compound concentration, ATP at Km app, read-out: FGFR1 inhibition): < 40%
- inhibition at 10 µM (FGFR1; read-out: % Inhibition mean FGFR1): 9%
- inhibition at 10 µM (CDK5/p35; 10 μmolar compound concentration, ATP at Km app, read-out: CDK5/p35 inhibition): < 40%
- inhibition at 10 µM (CDK5/p35; read-out: % Inhibition mean CDK5/p35): 7%
SMILES: CCn1ncc2c1C(C)CC(Nc1nc3c(-c4cc(F)c(F)c(F)c4)cccn3n1)C2 (stereo not drawn) [Example 49, (1-Ethyl-7-methyl-4,5,6,7-tetrahydro-1H-indazol-5-yl)-[8-(3,4,5-trifluoro-phenyl)-[1,2,4]triazolo[1,5-a]pyridine-2-yl]-amine]
